Results: US8796241B2, “Therapy of tumors and infectious agents deficient in methylthioadenosine phosphorylase” (priority 2007, dated 2014)

How the values were obtained:
[1] = system: MTAP(+) ML-1 cells; assay: Coulter counts of ML-1 suspension cultures; type: cell-based
Method: For cell types that grow in suspension (e.g., ML-1, HL-60, K-562) medium was RPMI-1640 with 10% FBS (undialyzed).
(§1) For adherent cell types, cell numbers were determined periodically by releasing cells with trypsin (dead cells that were no longer adherent were removed by two prior rinses of the culture dish) and placing a portion of the resulting cell suspension in a Coulter counter. For cell types that grow in suspension, portions of the culture were counted directly, without trypsin treatment. Coulter counts of cells from each dish were done twice, and almost all experiments were done in duplicate. In the presentation of results, raw data for Coulter counts is given in some cases, while in others, counts have been rounded off to two to three significant figures. (Background Coulter counts—i.e., counts of diluent alone—were insignificant.)
For cells that grow in suspension, the effect of treatments was assessed solely by changes in Coulter count.
• ML-1 cells were incubated in RPMI 1640 with 10% FBS with 5′-dAdo (60 μM) for 6 hours. 5-fluorouracil (FU), 6-thioguanine (TG), or 2,6-diaminopurine (DAP) were then added, and after 2 additional days, 0.5 ml was taken for Coulter counts. Initial Coulter count/ml: 308,000

[2] = system: MTAP(+) hematopoietic cell progenitors; assay: Assay of colony-forming cells from mouse bone marrow; type: cell-based; details: 5′-dAdo at doses as low as 15 μM
From the text: Method: The procedure for assay of colony-forming cells from mouse bone marrow was similar to methods described in the literature (see e.g., B. A. Teicher et al, Cancer Research, 47:513-518, 1987). In brief, cells were flushed from the femurs of Swiss mice, counted, and seeded into six-well tissue culture plates with supplemented McCoy's 5A medium, 15% FBS, 10 to 20% L929-cell conditioned medium as a source of colony-stimulating activity (L929 is MTAP-negative), 0.3% agar, and penicillin/streptomycin (op. cit. B. A. Teicher et al). Cells were seeded at two different densities: 50,000 and 250,000 cells per well. Control wells contained either no drugs, or adenine at 15 or 30 μM, or 5′-deoxyadenosine (5′-dAdo) at 15, 30, or 45 μM. Treatment wells contained 6-methylpurine (MeP) at 5 or 15 μM, 5′-deoxyadenosine (5′-dAdo) at 15 or 30 μM, and adenine at 15 or 30 μM, in various combinations. After eight days of incubation at 37° C. in a humidified 5% CO2 atmosphere, wells were fixed by the addition of 1 ml of 5% glutaraldehyde. Photographs were taken of a randomly selected portion of each well, as viewed (at fixed magnification) through a Nikon inverted microscope equipped with a camera.

[3] = system: MTAP(−) A549 cells; assay: Clonogenic assay of A549 cells; type: cell-based, human
Method: Cell viability of adherent cell types was measured by clonogenic assay as follows: after releasing cells with trypsin and removing a portion of the cell suspension for Coulter counting, the remainder of the cell suspension was plated in serial dilutions in growth medium, without drugs. After a period sufficient for clones to reach a size visible by eye (usually 2 to 3 weeks), clones were stained with crystal violet in a saline/methanol solution. Dishes that had fewer than 100 clones were deemed suitable for counting. From these counts and from the dilution factors, the approximate number of viable cells, in the parent treatment dishes, was calculated. […] In clonogenic assays, clone size was often variable, especially after treatment with toxic drugs. Moreover, many of the very small clones may have arisen from cells detached during the weeks of incubation. […] Cloning efficiency for healthy, growing A549 cells was about 50%; for HF cells, efficiency was quite variable, ranging from 25 to 75% (perhaps because the HF cell stock varied, from experiment to experiment, in passage number).
A549 cells were incubated for 4 days with additions shown below, and viable cells measured by clonogenic assay. (Results shown are approximate; see Methods) Cell count in dish at start: 40,000
• MTAP(−) A549 lung tumor cell cultures were treated with F-Ade, with or without MTA, 5′-dAdo, or adenine (Ade), for three days. Coulter counts of cells, and viable cells as determined by clonogenic assay, are shown below: • Initial cell number: 10,340*
• A549 cell cultures were treated with DAP, with or without 5′-dAdo or adenine, for three days. After trypsinization, one-fourth of the cell suspension was counted, and raw data is shown below, with duplicate counts for each sample. The cell suspension was also serially diluted for clonogenic assay. • Counts at start of experiment: Dish one: 36,480; 39,160; Dish two: 52,680; 51,360. • Initial viable cells by clonogenic assay: 180,000.
• Cell cultures were treated with MTX or alanosine for one day. DAP was then added and 3 days later, cells were trypsinized and serially diluted for clonogenic assay. Results are shown below: • Initial viable cells: 146,000
• A549 cells were plated, and after they had adhered to the substrate, medium was changed to methionine-free medium with 10% dialyzed serum. L-ethionine (Eth) and MTA were added, and after 4 days, cell cultures were trypsinized and serially diluted for clonogenic assay. • Initial number of viable cells: 160,000*
• A549 cultures were treated with 6-thioguanine (TG) or 2,6,diaminopurine (DAP), or both, for 3 days. • Initial viable cells: 275,000 • After 3 days: […]

[4] = system: MTAP(+) HF cells; assay: Coulter counts of HF cell cultures; type: cell-based, human
Method: For adherent cell types (e.g., HF, A549, MCF7) cells were plated in 60 mm -diameter plastic tissue culture dishes and incubated at 37° C. in a humidified 5% CO2 atmosphere, in Dulbecco's Modified Eagle's Medium (DME) with 10% fetal bovine serum (FBS). At the start of an experiment, medium was replaced with DME and 10% dialyzed FBS.
as §1
Cell cultures were treated with MeP, with or without 5′-dAdo or MTA, for 4 days. The cell cultures were then changed to fresh medium, with the addition of 30 μM Ade to inhibit further action of the analog. Two days later cultures were trypsinized and a portion of the suspension was counted.
• A. F-Ade was added to cultures of HF cells, with varying amounts of 5′-dAdo. After 3 days, cell numbers were counted. • Initial cell count: 1,100 • After three days:
• Cultures of human fibroblasts were treated with DAP, 5′-dAdo, MTA, adenine, or MTX. Thymidine (15 μM) was added to all cultures. • Initial count was: 1807 • Counts, as raw data, after 3 days of incubation, are shown below: […]
• Human fibroblasts in culture were treated with 6-thioguanine (TG), 2,6-diaminopurine (DAP), or 5′-dAdo for 3 days. After trypsinization, cell numbers were counted. • Initial cell number: 296,000

How did the “Increase in cell number/ml, 60 μM 5′-dAdo” value ([1]; 5′-dAdo 60 μM for 6 hours, then 2 days with FU 3 μM, TG 20 μM, DAP 50 μM where present, initial Coulter count/ml 308,000) turn out when `C[C@H]1O[C@@H](n2cnc3c(N)ncnc32)[C@H](O)[C@@H]1O` [5′-dAdo, 5′-deoxyadenosine] was run?
The value was 918,000 /ml.

What about the “protection against growth inhibition caused by FU, TG and DAP, individually and in combination” value ([1]; Example 14) of the same compound?
The value was “effectively protected”.

What about the “blocking of MeP toxicity to murine hematopoietic progenitors” value [2] of the same compound?
The value was “effectively blocked”.

And the “blocking of MeP toxicity in A549 cells” value ([3]; 10 μM MeP)?
Its value is “not”.

What about the “blocking of DAP toxicity in A549 cells” value ([3]; 100 μM DAP, Example 7) of the same compound?
The value was “did not block”.

And the “blocking of F-Ade toxicity in A549 cells” value ([3]; 1 to 2 μM F-Ade)?
The value was “not”.

What about the Coulter counts ([4]; 3 days, 5′-dAdo 60 μM, no F-Ade, initial count 1,100, x56 = cells/dish) of the same compound?
Its Coulter counts is 8150.

What about the “protection of HF cells against MeP toxicity” value ([4]; Example 3) of the same compound?
The value was “effectively protected”.

And the “blocking of DAP toxicity in HF cells” value ([4]; Example 8)?
The value was “blocked”.

What about the “blocking of inhibition by TG and by DAP in HF cells” value ([4]; Example 15) of the same compound?
Its value is “blocked inhibition”.

And the “protection of HF cells from the combined toxicity of TG and DAP” value ([4]; Example 15)?
Its value is “protected”.

What about the “protection from toxicity of F-Ade” value ([4]; increasing concentration of 5′-dAdo) of the same compound?
Its value is “so does protection”.
